# Target: T1, human PAH with the R408W mutation (Homo sapiens, UniProt P00439, R408W)
# T1 construct: expressed in transfected cells
# T1 sequence (P00439 1-452 R408W): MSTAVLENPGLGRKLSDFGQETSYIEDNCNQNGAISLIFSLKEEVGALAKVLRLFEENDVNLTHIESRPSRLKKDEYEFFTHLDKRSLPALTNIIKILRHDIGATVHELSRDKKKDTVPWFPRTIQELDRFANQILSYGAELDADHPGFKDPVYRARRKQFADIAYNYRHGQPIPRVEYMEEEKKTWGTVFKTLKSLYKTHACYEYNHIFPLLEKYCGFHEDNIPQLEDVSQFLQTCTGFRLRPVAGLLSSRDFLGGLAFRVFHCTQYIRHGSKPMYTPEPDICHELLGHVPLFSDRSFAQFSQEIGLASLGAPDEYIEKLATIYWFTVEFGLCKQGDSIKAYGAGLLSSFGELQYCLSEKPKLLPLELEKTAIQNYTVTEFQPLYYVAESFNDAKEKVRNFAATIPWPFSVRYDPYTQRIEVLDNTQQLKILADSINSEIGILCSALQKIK
# Experiment: Cell Based Phenylalanine Flux Assay;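 note: Ten-point dose curve from 2-fold serial dilutions, run in duplicate at 0.5% DMSO final, tracer step used 20 µM sepiapterin and 800 µM labeled phenylalanine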
# Settings: A375 cells expressing human R408W PAH; 24 hrs with compound, then sepiapterin and 13C9,15N-Phenylalanine for 4 hours; 13C-Tyrosine by LC-MS; average where tested multiple times; read-out: AC50
row,SMILES,AC50 [nM]
1,"Clc1cccn2nc([C@@H]3c4nc[nH]c4CCN3c3nnc(-c4cnccn4)o3)cc12 [Example 2161, (S)-2-(4-(4-chloropyrazolo [1,5-a]pyridin-2-yl)-1,4,6,7-tetrahydro-5H-imidazo[4,5-c]pyridin-5-yl)-5-(pyrazin-2-yl)-1,3,4-oxadiazole]",< 500
2,FC(F)c1nnc(N2CCc3[nH]cnc3[C@H]2c2cc3c(C4CC4)cccn3n2)o1 [Example 2167],< 500
3,"CC(C)c1cccn2nc([C@H]3c4nc[nH]c4CCN3c3nnc(-c4cnccn4)o3)cc12 [Example 2176, (R)-2-(4-(4-isopropylpyrazolo [1,5-a]pyridin-2-yl)-1,4,6,7-tetrahydro-5H-imidazo [4,5-c]pyridin-5-yl)-5-(pyrazin-2-yl)-1,3,4-oxadiazole]",> 5000
4,"Fc1cccn2nc([C@@H]3c4nc[nH]c4CCN3c3nnc(-c4ccncn4)o3)cc12 [Example 2178, (S)-2-(4-(4-fluoropyrazolo [1,5-a]pyridin-2-yl)-1,4,6,7-tetrahydro-5H-imidazo[4,5-c]pyridin-5-yl)-5-(pyrimidin-4-yl)-1,3,4-oxadiazole]",500 to 1000
5,"Clc1cccn2nc([C@@H]3c4nc[nH]c4CCN3c3nnc(-c4ccncn4)o3)cc12 [Example 2182, (S)-2-(4-(4-chloropyrazolo [1,5-a]pyridin-2-yl)-1,4,6,7-tetrahydro-5H-imidazo[4,5-c]pyridin-5-yl)-5-(pyrimidin-4-yl)-1,3,4-oxadiazole]",500 to 1000
6,"Cc1ncccc1-c1nnc(N2CCc3[nH]cnc3[C@H]2c2cc3c(C)cccn3n2)o1 [Example 2206, (S)-2-(4-(4-methylpyrazolo [1,5-a]pyridin-2-yl)-1,4,6,7-tetrahydro-5H-imidazo [4,5-c]pyridin-5-yl)-5-(2-methylpyridin-3-yl)-1,3,4-oxadiazole]",500 to 1000
7,"Cc1ncccc1-c1nnc(N2CCc3[nH]cnc3[C@H]2c2cc3c(C(F)(F)F)cccn3n2)o1 [Example 2208, (S)-2-(2-methylpyridin-3-yl)-5-(4-(4-(trifluoromethyl)pyrazolo [1,5-a]pyridin-2-yl)-1,4,6,7-tetrahydro-5H-imidazo [4,5-c]pyridin-5-yl)-1,3,4-oxadiazole]",500 to 1000
8,"Cc1ncccc1-c1nnc(N2CCc3[nH]cnc3[C@@H]2c2cc3c(F)cccn3n2)o1 [Example 2213, (R)-2-(4-(4-fluoropyrazolo [1,5-a]pyridin-2-yl)-1,4,6,7-tetrahydro-5H-imidazo [4,5-c]pyridin-5-yl)-5-(2-methylpyridin-3-yl)-1,3,4-oxadiazole]",> 5000
9,CC(C)(O)c1ncc(C(=O)N2CCc3[nH]cnc3[C@H]2c2cc3c(Cl)cccn3n2)o1 [Example 2216],500 to 1000
10,"Cc1nnc(C(=O)N2CCc3[nH]cnc3[C@H]2c2cc3c(OC(F)(F)F)cccn3n2)o1 [Example 2218, (S)-(5-methyl-1,3,4-oxadiazol-2-yl)(4-(4-(trifluoromethoxy)pyrazolo [1,5-a]pyridin-2-yl)-6,7-dihydro-1H-imidazo[4,5-c]pyridin-5(4H)-yl)methanone]",1000 to 5000
11,"CC1(c2nnc(N3CCc4[nH]cnc4[C@H]3c3cc4c(C5CC5)cccn4n3)o2)CC1 [Example 2227, (S)-2-(4-(4-cyclopropylpyrazolo [1,5-a]pyridin-2-yl)-1,4,6,7-tetrahydro-5H-imidazo [4,5-c]pyridin-5-yl)-5-(1-methylcyclopropyl)-1,3,4-oxadiazole]",500 to 1000
12,"CC(F)(F)c1nnc(N2CCc3[nH]cnc3[C@@H]2c2cc3c(Cl)cccn3n2)o1 [Example 2232, (R)-2-(4-(4-chloropyrazolo [1,5-a]pyridin-2-yl)-1,4,6,7-tetrahydro-5H-imidazo [4,5-c]pyridin-5-yl)-5-(1,1-difluoroethyl)-1,3,4-oxadiazole]",> 5000
13,"O=C(c1cnc(-c2cnccn2)o1)N1CCc2[nH]cnc2[C@H]1c1cc2c(C(F)F)cccn2n1 [Example 2242, (S)-(4-(4-(difluoromethyl)pyrazolo[1,5-a]pyridin-2-yl)-1,4,6,7-tetrahydro-5H-imidazo [4,5-c]pyridin-5-yl)(2-(pyrazin-2-yl)oxazol-5-yl) methanone]",500 to 1000
14,"FC(F)c1nnc(N2CCc3[nH]cnc3[C@H]2c2cc3c(OC(F)(F)F)cccn3n2)o1 [Example 2251, (S)-2-(difluoromethyl)-5-(4-(4-(trifluoromethoxy)pyrazolo [1,5-a]pyridin-2-yl)-1,4,6,7-tetrahydro-5H-imidazo [4,5-c]pyridin-5-yl)-1,3,4-oxadiazole]",< 500

# Other lines, results leading:
row,AC50 [nM],SMILES
1,> 5000,"Clc1cccn2nc([C@H]3c4nc[nH]c4CCN3c3nnc(-c4cnccn4)o3)cc12 [Example 2160, (R)-2-(4-(4-chloropyrazolo [1,5-a]pyridin-2-yl)-1,4,6,7-tetrahydro-5H-imidazo[4,5-c]pyridin-5-yl)-5-(pyrazin-2-yl)-1,3,4-oxadiazole]"
2,500 to 1000,"CC(C)c1cccn2nc([C@@H]3c4nc[nH]c4CCN3c3nnc(-c4cnccn4)o3)cc12 [Example 2177, (S)-2-(4-(4-isopropylpyrazolo [1,5-a]pyridin-2-yl)-1,4,6,7-tetrahydro-5H-imidazo [4,5-c]pyridin-5-yl)-5-(pyrazin-2-yl)-1,3,4-oxadiazole]"
3,> 5000,"Cc1cccn2nc([C@H]3c4nc[nH]c4CCN3c3nnc(C4(C)CC4)o3)cc12 [Example 2188, (R)-2-(1-methylcyclopropyl)-5-(4-(4-methylpyrazolo[1,5-a]pyridin-2-yl)-1,4,6,7-tetrahydro-5H-imidazo[4,5-c]pyridin-5-yl)-1,3,4-oxadiazole]"
4,1000 to 5000,"Cc1ncccc1-c1nnc(N2CCc3[nH]cnc3[C@H]2c2cc3c(C(F)F)cccn3n2)o1 [Example 2210, (S)-2-(4-(4-(difluoromethyl)pyrazolo[1,5-a]pyridin-2-yl)-1,4,6,7-tetrahydro-5H-imidazo [4,5-c]pyridin-5-yl)-5-(2-methylpyridin-3-yl)-1,3,4-oxadiazole]"
5,< 500,"Cc1ncccc1-c1nnc(N2CCc3[nH]cnc3[C@H]2c2cc3c(F)cccn3n2)o1 [Example 2212, (S)-2-(4-(4-fluoropyrazolo [1,5-a]pyridin-2-yl)-1,4,6,7-tetrahydro-5H-imidazo [4,5-c]pyridin-5-yl)-5-(2-methylpyridin-3-yl)-1,3,4-oxadiazole]"
6,< 500,"Cc1cccn2nc([C@@H]3c4nc[nH]c4CCN3C(=O)c3nc(C(F)F)nn3C)cc12 [Example 2214, (S)-(3-(difluoromethyl)-1-methyl-1H-1,2,4-triazol-5-yl)(4-(4-methylpyrazolo[1,5-a]pyridin-2-yl)-6,7-dihydro-1H-imidazo[4,5-c]pyridin-5(4H)-yl)methanone]"
7,> 5000,"Cc1nnc(C(=O)N2CCc3[nH]cnc3[C@@H]2c2cc3c(OC(F)(F)F)cccn3n2)o1 [Example 2219, (R)-(5-methyl-1,3,4-oxadiazol-2-yl)(4-(4-(trifluoromethoxy)pyrazolo [1,5-a]pyridin-2-yl)-6,7-dihydro-1H-imidazo[4,5-c]pyridin-5(4H)-yl)methanone]"
8,> 5000,"CC1(c2nnc(N3CCc4[nH]cnc4[C@@H]3c3cc4c(C5CC5)cccn4n3)o2)CC1 [Example 2226, (R)-2-(4-(4-cyclopropylpyrazolo [1,5-a]pyridin-2-yl)-1,4,6,7-tetrahydro-5H-imidazo [4,5-c]pyridin-5-yl)-5-(1-methylcyclopropyl)-1,3,4-oxadiazole]"
9,> 5000,"CC(C)c1cccn2nc([C@H]3c4nc[nH]c4CCN3c3nnc(C4(C)CC4)o3)cc12 [Example 2228, (R)-2-(4-(4-isopropylpyrazolo [1,5-a]pyridin-2-yl)-1,4,6,7-tetrahydro-5H-imidazo [4,5-c]pyridin-5-yl)-5-(1-methylcyclopropyl)-1,3,4-oxadiazole]"
10,< 500,"CC(C)c1cccn2nc([C@@H]3c4nc[nH]c4CCN3c3nnc(C4(C)CC4)o3)cc12 [Example 2229, (S)-2-(4-(4-isopropylpyrazolo [1,5-a]pyridin-2-yl)-1,4,6,7-tetrahydro-5H-imidazo [4,5-c]pyridin-5-yl)-5-(1-methylcyclopropyl)-1,3,4-oxadiazole]"
11,> 5000,"CC(C)c1cccn2nc([C@H]3c4nc[nH]c4CCN3c3nnc(C(C)(F)F)o3)cc12 [Example 2230, (R)-2-(1,1-difluoroethyl)-5-(4-(4-isopropylpyrazolo[1,5-a]pyridin-2-yl)-1,4,6,7-tetrahydro-5H-imidazo[4,5-c]pyridin-5-yl)-1,3,4-oxadiazole]"
12,< 500,"CC(F)(F)c1nnc(N2CCc3[nH]cnc3[C@H]2c2cc3c(Cl)cccn3n2)o1 [Example 2233, (S)-2-(4-(4-chloropyrazolo [1,5-a]pyridin-2-yl)-1,4,6,7-tetrahydro-5H-imidazo [4,5-c]pyridin-5-yl)-5-(1,1-difluoroethyl)-1,3,4-oxadiazole]"
13,> 5000,"Cc1ncccc1-c1nnc(N2CCc3[nH]cnc3[C@@H]2c2cc3c(Cl)cccn3n2)o1 [Example 2237, (R)-2-(4-(4-chloropyrazolo [1,5-a]pyridin-2-yl)-1,4,6,7-tetrahydro-5H-imidazo [4,5-c]pyridin-5-yl)-5-(2-methylpyridin-3-yl)-1,3,4-oxadiazole]"
14,> 5000,O=C(c1cnc(-c2cnccn2)o1)N1CCc2[nH]cnc2[C@@H]1c1cc2c(C(F)F)cccn2n1 [Example 2243]
15,500 to 1000,"FC(F)(F)Oc1cccn2nc([C@H]3c4nc[nH]c4CCN3c3nnc(C(F)(F)F)o3)cc12 [Example 2252, (R)-2-(4-(4-(trifluoromethoxy)pyrazolo[1,5-a]pyridin-2-yl)-1,4,6,7-tetrahydro-5H-imidazo[4,5-c]pyridin-5-yl)-5-(trifluoromethyl)-1,3,4-oxadiazole]"
